Measurements: the supplement of paper PMC10307832

Experiments:
Test in all cases: relative viability (nuclei count vs DMSO), 5 days (fraction); higher = more cells survive
ABC-1 = system: ABC-1
Method in brief: (§1)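 Each reported value is a median over duplicate plates. It expresses relative viability: treated-well nuclei count divided by vehicle-well nuclei count. Lung cancer cell lines in 1536-well plates were dosed by pin tool a day after seeding, alone with one drug or with a fixed anchor-drug dose plus five library-drug doses (not always all listed) in √10 steps, and nuclei were counted after 5 days.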

A-427 = system: A-427
Method in brief: as §1

COR-L23 = system: COR-L23
Method in brief: as §1

PC-3 [JPC-3] = system: PC-3 [JPC-3]
Method in brief: as §1

LK-2 = system: LK-2
Method in brief: as §1

NCI-H2170 = system: NCI-H2170
Method in brief: as §1

NCI-H1993 = system: NCI-H1993
Method in brief: as §1

LU99A = system: LU99A
Method in brief: as §1

SK-MES-1 = system: SK-MES-1
Method in brief: as §1

NCI-H727 = system: NCI-H727
Method in brief: as §1

NCI-H3122 = system: NCI-H3122
Method in brief: as §1

NCI-H596 = system: NCI-H596
Method in brief: as §1

NCI-H2228 = system: NCI-H2228
Method in brief: as §1

LXF-289 = system: LXF-289
Method in brief: as §1

NCI-H1793 = system: NCI-H1793
Method in brief: as §1

NCI-H2009 = system: NCI-H2009
Method in brief: as §1

SW 900 = system: SW 900
Method in brief: as §1

SW 1573 = system: SW 1573
Method in brief: as §1

EMC-BAC-2 = system: EMC-BAC-2
Method in brief: as §1

HARA = system: HARA
Method in brief: as §1

HOP-62 = system: HOP-62
Method in brief: as §1

SK-LU-1 = system: SK-LU-1
Method in brief: as §1

NCI-H1944 = system: NCI-H1944
Method in brief: as §1

C[C@@H]1CN(CC(=O)Nc2ccc3c(c2)Cc2cccc(-c4cc(=O)cc(N5CCOCC5)o4)c2S3)C[C@H](C)O1 + COc1cc2c(Oc3ccc(NC(=O)C4(C(=O)Nc5ccc(F)cc5)CC4)cc3F)ccnc2cc1OCCCN1CCOCC1 [Foretinib] (partner 0.25 µM)
relative viability (ABC-1; first compound 0.1265 µM): 1.11 | relative viability (ABC-1; first compound 0.4 µM): 1.06 | relative viability (ABC-1; first compound 4 µM): 0.928 | relative viability (A-427; first compound 0.04 µM): 1.05 | relative viability (A-427; first compound 0.1265 µM): 1.17 | relative viability (A-427; first compound 0.4 µM): 1.11 | relative viability (A-427; first compound 4 µM): 1.22 | relative viability (COR-L23; first compound 0.04 µM): 0.991 | relative viability (COR-L23; first compound 0.1265 µM): 1.05 | relative viability (COR-L23; first compound 0.4 µM): 1.02 | relative viability (COR-L23; first compound 4 µM): 0.929 | relative viability (PC-3 [JPC-3]; first compound 0.04 µM): 1.02 | relative viability (PC-3 [JPC-3]; first compound 0.1265 µM): 0.998 | relative viability (PC-3 [JPC-3]; first compound 0.4 µM): 0.93 | relative viability (PC-3 [JPC-3]; first compound 4 µM): 0.884 | relative viability (LK-2; first compound 0.1265 µM): 1.27 | relative viability (LK-2; first compound 0.4 µM): 1.16 | relative viability (LK-2; first compound 4 µM): 1.47 | relative viability (NCI-H2170; first compound 0.04 µM): 1.08 | relative viability (NCI-H2170; first compound 0.1265 µM): 0.97 | relative viability (NCI-H2170; first compound 0.4 µM): 0.648 | relative viability (NCI-H2170; first compound 4 µM): 1 | relative viability (NCI-H1993; first compound 0.04 µM): 0.811 | relative viability (NCI-H1993; first compound 0.1265 µM): 0.711 | relative viability (NCI-H1993; first compound 0.4 µM): 0.646 | relative viability (NCI-H1993; first compound 4 µM): 0.707 | relative viability (LU99A; first compound 0.04 µM): 0.79 | relative viability (LU99A; first compound 0.1265 µM): 0.959 | relative viability (LU99A; first compound 0.4 µM): 1.02 | relative viability (LU99A; first compound 4 µM): 0.854 | relative viability (SK-MES-1; first compound 0.04 µM): 1.15 | relative viability (SK-MES-1; first compound 0.1265 µM): 0.822 | relative viability (SK-MES-1; first compound 0.4 µM): 0.76 | relative viability (SK-MES-1; first compound 4 µM): 0.746 | relative viability (NCI-H727; first compound 0.04 µM): 0.98 | relative viability (NCI-H727; first compound 0.1265 µM): 0.783 | relative viability (NCI-H727; first compound 0.4 µM): 0.826 | relative viability (NCI-H727; first compound 4 µM): 1 | relative viability (NCI-H3122; first compound 0.04 µM): 1.03 | relative viability (NCI-H3122; first compound 0.1265 µM): 0.902 | relative viability (NCI-H3122; first compound 0.4 µM): 0.961 | relative viability (NCI-H3122; first compound 4 µM): 0.914 | relative viability (NCI-H596; first compound 0.04 µM): 0.926 | relative viability (NCI-H596; first compound 0.1265 µM): 0.835 | relative viability (NCI-H596; first compound 0.4 µM): 0.909 | relative viability (NCI-H596; first compound 4 µM): 0.87 | relative viability (NCI-H2228; first compound 0.04 µM): 0.82 | relative viability (NCI-H2228; first compound 0.1265 µM): 0.689 | relative viability (NCI-H2228; first compound 0.4 µM): 0.726 | relative viability (NCI-H2228; first compound 4 µM): 0.816 | relative viability (LXF-289; first compound 0.04 µM): 0.993 | relative viability (LXF-289; first compound 0.1265 µM): 1.01 | relative viability (LXF-289; first compound 0.4 µM): 0.985 | relative viability (LXF-289; first compound 4 µM): 0.936 | relative viability (NCI-H1793; first compound 0.04 µM): 0.556 | relative viability (NCI-H1793; first compound 0.1265 µM): 0.72 | relative viability (NCI-H1793; first compound 0.4 µM): 0.809 | relative viability (NCI-H1793; first compound 4 µM): 0.476 | relative viability (NCI-H2009; first compound 0.04 µM): 1.35 | relative viability (NCI-H2009; first compound 0.1265 µM): 1.18 | relative viability (NCI-H2009; first compound 0.4 µM): 1.15 | relative viability (NCI-H2009; first compound 4 µM): 0.967 | relative viability (SW 900; first compound 0.04 µM): 0.809 | relative viability (SW 900; first compound 0.1265 µM): 0.836 | relative viability (SW 900; first compound 0.4 µM): 0.816 | relative viability (SW 900; first compound 4 µM): 0.782 | relative viability (SW 1573; first compound 0.04 µM): 0.683 | relative viability (SW 1573; first compound 0.1265 µM): 0.946 | relative viability (SW 1573; first compound 0.4 µM): 0.936 | relative viability (SW 1573; first compound 4 µM): 0.999 | relative viability (EMC-BAC-2; first compound 0.04 µM): 1.08 | relative viability (EMC-BAC-2; first compound 0.1265 µM): 1.04 | relative viability (EMC-BAC-2; first compound 0.4 µM): 0.998 | relative viability (EMC-BAC-2; first compound 4 µM): 0.92 | relative viability (HARA; first compound 0.1265 µM): 0.757 | relative viability (HARA; first compound 0.4 µM): 0.891 | relative viability (HARA; first compound 4 µM): 0.879 | relative viability (HOP-62; first compound 0.04 µM): 0.924 | relative viability (HOP-62; first compound 0.1265 µM): 1.08 | relative viability (HOP-62; first compound 0.4 µM): 1.13 | relative viability (HOP-62; first compound 4 µM): 0.9 | relative viability (SK-LU-1; first compound 0.04 µM): 0.813 | relative viability (SK-LU-1; first compound 0.1265 µM): 0.831 | relative viability (SK-LU-1; first compound 0.4 µM): 0.859 | relative viability (SK-LU-1; first compound 4 µM): 0.565 | relative viability (NCI-H1944; first compound 0.04 µM): 0.761 | relative viability (NCI-H1944; first compound 0.1265 µM): 0.888 | relative viability (NCI-H1944; first compound 0.4 µM): 0.926 | relative viability (NCI-H1944; first compound 4 µM): 0.912
